Measured values: patent US20120270928A1, “MICRORNA COMPOUNDS AND METHODS FOR MODULATING MIR-21 ACTIVITY” (REGULUS THERAPEUTICS INC., priority 2011, published 2012)
Strand notation (5' to 3'): a small letter for the sugar, then the base; units joined by * are phosphorothioate-linked, units joined directly phosphodiester-linked; [ ] holds rarer units or linkages, { } end groups; capitals alone tell only the bases. e = 2'-O-(2-methoxyethyl) (MOE); l = locked nucleic acid (LNA); k = constrained ethyl (cEt); [5mC] = 5-methylcytosine; d = 2'-deoxy (DNA)

System: miR-21
Test: miR-21 luciferase sensor assay in Hela cells
Assay type: cell-based
Conditions: for inhibition of miR-21 activity in the luciferase assay (in words) / luciferase value normalized to beta-galactosidase activity: Hela cells
Method: The compounds were assessed for miR-21 inhibitory activity in a luciferase assay. A microRNA luciferase sensor construct was engineered using pGL3-MCS2 (Promega). The construct was introduced into Hela cells to test the ability of anti-miR compounds to inhibit activity of miR-21. In this assay, miR-21 present in the Hela cells binds to its cognate site(s) in the luciferase sensor construct, and suppresses luciferase expression. When the appropriate anti-miR is introduced into the cells, it binds to miR-21 and relieves suppression of luciferase expression. Thus, in this assay anti-miRs that are effective inhibitors of miR-21 expression will cause an increase in luciferase expression.
Hela cells (ATCC), stably transfected with a luciferase construct engineered to contain a sequence complementary of miR-21, were seeded in T-170 flasks (BD Falcon) at 3.5*10^6 cells/flask. Hela cells were grown in Dulbecco's Modified Eagle Medium with High Glucose (Invitrogen).
Each flask of Hela cells was transfected with 0.5 ug of a phRL sensor plasmid (Promega) expressing Renilla to be used in normalization. Hela cells were transfected using 20 ul Lipofectamine 2000/flask (Invitrogen). After 4 hours of transfection, cells were washed with PBS and trypsinized Hela cells were plated at 40 k/well in 24 well plates (BD Falcon) and left overnight.
Hela cells were transfected with anti-miRs using Lipofectin (Invitrogen) at 2.5 ul Lipofectin/100 nM ASO/ml Opti-MEM I Reduced Serum Medium (Invitrogen) for 4 hours. After ASO transfection, Hela cells were refed with Dulbecco's Modified Eagle Medium with High Glucose (Invitrogen).
Hela cells are passively lysed and luciferase activity measured using the Dual-Luciferase Reporter Assay System (Promega).
The luciferase assay was performed to test the ability of anti-miRs with the nucleoside patterns described herein to inhibit the activity of miR-21. Results were compared to a ‘mock’ treatment, in which cells received no anti-miR treatment. The experiment was repeated and results of two experimental replicates are shown in the following Table B, as the luciferase value normalized to beta-galactosidase activity.
The luciferase assay was performed as described herein to test the ability of anti-miRs in Table F to inhibit the activity of miR-21. Results were compared to a ‘mock’ treatment, in which cells received no anti-miR treatment. The experiment was repeated and results of two experimental replicates are shown in the following Table D, as fold change in luciferase value relative to the mock treatment.

[1] = concentration of anti-miR compound 0.2 (unit not given)
[2] = concentration of anti-miR compound 0.6 (unit not given)
[3] = concentration of anti-miR compound 1.9 (unit not given)
[4] = concentration of anti-miR compound 5.6 (unit not given)
[5] = concentration of anti-miR compound 16.7 (unit not given)
[6] = concentration of anti-miR compound 50.0 (unit not given)
[7] = 500 nM oligonucleotide, two experimental replicates

Substance | inhibition of miR-21 activity in the luciferase assay (in words) | fold change in luciferase value relative to the mock treatment [1] [fold change] | fold change in luciferase value relative to the mock treatment [2] [fold change] | fold change in luciferase value relative to the mock treatment [3] [fold change] | fold change in luciferase value relative to the mock treatment [4] [fold change] | fold change in luciferase value relative to the mock treatment [5] [fold change] | fold change in luciferase value relative to the mock treatment [6] [fold change] | luciferase value normalized to beta-galactosidase activity (4 nM oligonucleotide) | luciferase value normalized to beta-galactosidase activity (20 nM oligonucleotide) | luciferase value normalized to beta-galactosidase activity (100 nM oligonucleotide) | luciferase value normalized to beta-galactosidase activity [7] | luciferase value normalized to beta-galactosidase activity (.16 nM oligonucleotide) | luciferase value normalized to beta-galactosidase activity (.8 nM oligonucleotide)
AE^MeCLAETE^MeCLAEGETE^MeCLTEGEAE^MeTLAEAEGE^MeCLTEAE (antisense eA*l[5mC]*eA*eT*l[5mC]*eA*eG*eT*l[5mC]*eT*eG*eA*lT*eA*eA*eG*l[5mC]*eT*eA) [Compound 25117, variation of 25070: each non-bicyclic nucleoside is 2′-MOE, each cytosine 5-methyl cytosine] | not effective inhibitors of miR-21 | 1.05 | 1.15 | 1.14 | 3.64 | 7.36 | 2.91 |  |  |  |  |  | 
Ae^MeCAST^MeCAGST^MeCTGASTASAGS^MeCTAe (ACATCAGTCTGATAAGCTA; listed as DNA, chemistry not fully specified) [Compound 25071] |  |  |  |  |  |  |  | 50 | 63 | 53 | 42 | 48 | 36
AeTe^MeCeASGSTe^MeCeTeGSASTeAeASGS^MeCeTeAe [Compound 25077] |  |  |  |  |  |  |  | 45 | 33 | 42 | 40 | 34 | 33
AE^MeCSAETE^MeCSAEGETE^MeCSTEGEAE^MeTSAEAEGE^MeCSTEAE (antisense eA*k[5mC]*eA*eT*k[5mC]*eA*eG*eT*k[5mC]*eT*eG*eA*kT*eA*eA*eG*k[5mC]*eT*eA; further chemistry not given here) [Compound 25116, variation of 25070: each non-bicyclic nucleoside is 2′-MOE, each cytosine 5-methyl cytosine] | not effective inhibitors of miR-21 | 1.06 | 0.98 | 1.06 | 2.47 | 5.64 | 1.98 |  |  |  |  |  | 
AeTe^MeCeAeGeTe^MeCeTeGSASTeASASGe^MeCeUSAS [Compound 25731] |  |  |  |  |  |  |  | 32 | 39 | 38 | 59 | 34 | 45
AE^MeCSAT^MeCSAGT^MeCSTGATSAAG^MeCSTAE (antisense ACATCAGTCTGATAAGCTA; MOE ends, cEt, 5-methyl C, unmarked nucleosides not given here, further chemistry not given here) [Compound 25922, variation of 25070: each cytosine is a 5-methyl cytosine] | inhibition of miR-21 in a dose-dependent manner | 1.02 | 1.10 | 1.34 | 8.81 | 11.60 | 11.46 |  |  |  |  |  | 
AE^MeCSAT^MeCSAGT^MeCSTGATSAAG^MeCSTAS (antisense eA*k[5mC]*dA*dT*k[5mC]*dA*dG*dT*k[5mC]*dT*dG*dA*kT*dA*dA*dG*k[5mC]*dT*kA; further chemistry not given here) [Compound 25924, variation of 25070: 3′-terminal cEt nucleoside and each cytosine is a 5-methyl cytosine] | inhibition of miR-21 in a dose-dependent manner | 1.10 | 1.25 | 1.37 | 7.80 | 13.01 | 8.99 |  |  |  |  |  | 
Te^MeCASA^MeCAST^MeCAGST^MeCTGASTAAGS^MeCTAe (TCAACATCAGTCTGATAAGCTA; cEt, 5-methyl C and phosphorothioate modifications, code letters not given here, further chemistry not given here) [Compound 25067] |  |  |  |  |  |  |  | 43 | 41 | 30 | 42 | 38 | 23
